Reference: publication PMC6073423, “Dose-Dependent Increase in Unconjugated Cinnamic Acid Concentration in Plasma Following Acute Consumption of Polyphenol Rich Curry in the Polyspice Study” (Nutrients, 2018)
Read-outs that look alike come from different tables or passages of the source.

Assays:
[1] = Plasma nutrikinetics of unconjugated phenolic/aromatic acids after curry test meals (LC-MS/MS, non-compartmental); conditions: for AUC(0-t) / Cmax: male, human; for plasma concentration: all three doses
From the text: The detailed methods for this Polyspice study have been described elsewhere. In brief, this was a three-way randomized, controlled, crossover, acute feeding trial in healthy Chinese males (age 23.7 ± 2.30 y, BMI 23.0 ± 2.31 kg/m^2). Three days prior to the main test day, each volunteer avoided vigorous physical activity and adopted a low polyphenol diet. To help adhere to a ‘low polyphenol diet’ in this run-in period, volunteers were provided with a list of polyphenol rich foods to avoid, which consisted of some fruits and fruit juices, spices and condiments, olive oil, certain vegetables, whole grain cereals, cocoa products, tea (including Green tea), coffee, red wine etc. […] On the main test day, the volunteers arrived at the study center in the morning after an overnight fasting period of a minimum of 10 h. On each of 3 test sessions, the volunteers consumed in random order 1 of 3 test meals: Dose 0 Control (D0C), Dose 1 Curry (D1C) and Dose 2 Curry (D2C). D0C, D1C, and D2C contained 0 g, 6 g, and 12 g mixed spices respectively. The mixed spices were prepared by thoroughly mixing dried powders of 7 different spices consisting of turmeric (Everest Spices, Mumbai, India), coriander seeds (Everest Spices, Mumbai, India), cumin seeds (Everest Spices, Mumbai, India), dried Indian gooseberry (‘amla’, Emblica officinalis, Ramdev Spices, Ahmedabad, India), cayenne pepper (Robertson’s, Durban, South Africa), cinnamon (McCormick’s, Baltimore, MD, USA), and clove (Robertson’s, South Africa) in the ratio of 8:4:4:4:2:1:1 respectively. The ‘base vegetables’ used in the curry recipes consisted of tomatoes, onions, ginger, and garlic in the ratio of 5:2:1:1, with D0C, D1C and D2C containing 0 g, 90 g, and 180 g base vegetables respectively. […] The 3 test meals were matched for total vegetable content by including 130 g peeled eggplant (Solanum melongena) and 50 g tomatoes to D0C and 90 g peeled eggplant to D1C. Plain white rice was consumed along with each test meal and the composition of all 3 test meals were isocaloric and macronutrients matched. A standardized lunch was served after the 3 h postprandial blood draw time point, consisting of a made-to-order chicken lasagna (TopChoice Food Industries (S) Pte Ltd., Singapore), which specifically excluded polyphenol-rich ingredients such as black pepper, herbs, spices, onion, garlic or ginger from the product’s original recipe. There was a minimum of 1-week washout period between each session.
The plasma sample was centrifuged at 1500 g for 10 min at 4 °C within 45 min of collection. Aliquots were stored at −80 °C until analysis.
The panel of phenolic/aromatic acids chosen for analyses were based on the predicted metabolic fate of polyphenols contained within the ingredients used in our test meals, as described above. […] Ultra-pure water from Adrona (Rīga, Latvija) was used. Unless otherwise stated, all chemicals and reagents were obtained from Sigma-Aldrich (St. Louis, MO, USA).
Stock solutions of 10 mM of each analyte were prepared in acetonitrile. Baseline (0 h) plasma was pooled from all participants and used as a matrix in equal volume for each calibration standard. […] All standard solutions were freshly prepared and kept in −20 °C prior to use.
Protein precipitation was undertaken using 400 μL acetonitrile containing 1 µM of BA-d5 internal standard was added to 100 μL of plasma, calibration, quality control or blank samples. The sample was centrifuged at 16,000 g for 15 min at 4 °C. 400 μL of the supernatant was recovered and evaporated under a nitrogen flow. Finally, extracts were reconstituted with 80 μL of 90% mobile phase A and 10% mobile phase B.

[2] = Compartmental nutrikinetic modeling of the CNA plasma concentration-time profile (one-compartment, first-order elimination); type: in vivo; conditions: male, human, oral; for AUC: read-out: AUC (one-compartment model); for Cmax: read-out: Cmax (one-compartment model); for k el: read-out: Ke, elimination rate constant (converted)
Experimental: Compartmental parameter estimates for CNA were determined after fitting of concentration data to several compartmental models on Phoenix WinNonlin (Table S3). The Gauss-Newton algorithm was applied and the final model selection was based on goodness-of-fit comparisons, examination of the residual plots, correlation of the observed and predicted values, and Akaike information criterion. 1/Y^2 model yielded the best fit amongst the various weighting schemes used (1/Y, 1/Y^2, and actual). The final nutrikinetic curve best fit into a one-compartment, first-order elimination, as described by:(1) C(T)=DKa/V (Ka−Ke) [e^−KeT−e^−KaT] where C is the plasma concentration, T is time, Ka is the first-order absorption rate, Ke is the first-order elimination rate constant, D is dose, and V is the apparent volume of distribution. Secondary parameters determined from the model included the Cmax, Tmax, AUC0–7 h as well as the terminal half-life.

[3] = cited from earlier work
[4] = set-up: method as in PMID 23604435; conditions: cited from earlier work
[5] = plasma, oral, 12 g mixed spices
[6] = 0 g mixed spices, D0C, Figure 2C
[7] = 6 g mixed spices, D1C, Figure 2C
[8] = 12 g mixed spices, D2C, Figure 2C

| AUC(0-t) ([1]; plasma, oral, 0 g mixed spices) [µM·h] | Cmax ([1]; plasma, oral, 0 g mixed spices) [nM] | AUC(0-t) ([1]; plasma, oral, 6 g mixed spices) [µM·h] | Cmax ([1]; plasma, oral, 6 g mixed spices) [nM] | AUC(0-t) [1, 5] [µM·h] | Cmax [1, 5] [nM] | SMILES | other results |
| --- | --- | --- | --- | --- | --- | --- | --- |
| 2.07 ± 1.45 | 566 ± 322 | 2.38 ± 1.07 | 667 ± 305 | 2.17 ± 1.07 | 633 ± 285 | O=C(O)Cc1ccc(O)cc1 [4-Hydroxyphenylacetic acid (4OH-PAA), 4-hydroxyphenylacetic acid] | – |
| 0.0084 ± 0.0034 | 2.4 ± 0.7 | 0.376 ± 0.105 | 164 ± 47.7 | 0.876 ± 0.292 | 342 ± 83 | O=C(O)/C=C/c1ccccc1 [Cinnamic acid (CNA), cinnamic acid] | AUC [2, 6]: 0.0254 µM·h; Cmax [2, 6]: 2.73 nM; k el [2, 6]: 8.06e-05 s⁻¹; half-life ([2]; 0 g mixed spices, D0C, Figure 2C, read-out: T0.5, half-life (converted)): 142 min; Tmax ([2]; 0 g mixed spices, D0C, Figure 2C, read-out: Tmax (one-compartment model)): 205 min; AUC [2, 7]: 0.347 µM·h; Cmax [2, 7]: 144 nM; k el [2, 7]: 0.000297 s⁻¹; half-life ([2]; 6 g mixed spices, D1C, Figure 2C, read-out: T0.5, half-life (converted)): 39 min; Tmax ([2]; 6 g mixed spices, D1C, Figure 2C, read-out: Tmax (one-compartment model)): 56.4 min; AUC [2, 8]: 0.847 µM·h; Cmax [2, 8]: 323 nM; k el [2, 8]: 0.000289 s⁻¹; half-life ([2]; 12 g mixed spices, D2C, Figure 2C, read-out: T0.5, half-life (converted)): 40.2 min; Tmax ([2]; 12 g mixed spices, D2C, Figure 2C, read-out: Tmax (one-compartment model)): 58.2 min; half-life ([2]; no lag time, 1st order absorption, 1st order elimination, 1-compartment model, assumes elimination is rate-limiting, read-out: average elimination half-life (converted)): 39.6 min; Tmax ([2]; no lag time, 1st order absorption, 1st order elimination, 1-compartment model, read-out: Tmax (average, compartmental model)): 57.6 min; fraction eliminated via oxidation (β-oxidation) and subsequent glycine conjugation to form HA [3]: 63%; time of plasma peak post consumption ([1]; D1C and D2C): approximately 1 h; time of secondary peak in plasma ([1]; D1C and D2C periods, Figure 2A): around 3 h |
| 0.036 ± 0.0233 | 13.7 ± 9.9 | 0.0542 ± 0.0346 | 18.3 ± 12.4 | 0.114 ± 0.207 | 41.5 ± 101 | O=C(O)c1ccc(O)cc1 [4-Hydroxybenzoic acid (4OH-BA), 4-hydroxybenzoic acid] | – |
| 1.83 ± 1.42 | 1290 ± 706 | 3.22 ± 3.1 | 1370 ± 1170 | 3.06 ± 1.8 | 1080 ± 616 | O=C(O)CNC(=O)c1ccccc1 [Hippuric acid (HA), hippuric acid] | maximum concentration in plasma ([1]; most abundant phenolic acid in plasma, Table 1): above 1200 nM; half-life [4]: 1320 min |

Continued, compound first:

| SMILES | AUC(0-t) ([1]; plasma, oral, 0 g mixed spices) [µM·h] | Cmax ([1]; plasma, oral, 0 g mixed spices) [nM] | AUC(0-t) ([1]; plasma, oral, 6 g mixed spices) [µM·h] | Cmax ([1]; plasma, oral, 6 g mixed spices) [nM] | AUC(0-t) [1, 5] [µM·h] | Cmax [1, 5] [nM] | other results |
| --- | --- | --- | --- | --- | --- | --- | --- |
| O=C(O)c1ccccc1 [Benzoic acid (BA), benzoic acid] | – | – | – | – | – | – | AUC(0-t) ([1]; in vivo, 0 g mixed spices): 0.348 ± 0.0868 µM·h; Cmax ([1]; in vivo, 0 g mixed spices): 114 ± 36.7 nM; AUC(0-t) ([1]; in vivo, 6 g mixed spices): 0.347 ± 0.107 µM·h; Cmax ([1]; in vivo, 6 g mixed spices): 113 ± 33.6 nM; AUC(0-t) ([1]; in vivo, 12 g mixed spices): 0.355 ± 0.123 µM·h; Cmax ([1]; in vivo, 12 g mixed spices): 109 ± 34.6 nM |
| O=C(O)CNC(=O)c1cccc(O)c1 [3-Hydroxyhippuric acid (3OH-HA), 3-hydroxyhippuric acid] | 0.0707 ± 0.0616 | 26.3 ± 22.5 | 0.0801 ± 0.0683 | 27.4 ± 19.1 | 0.0884 ± 0.0854 | 31.3 ± 26.5 | – |
| O=C(O)Cc1cccc(O)c1 [3-Hydroxyphenylacetic acid (3OH-PAA), 3-hydroxyphenylacetic acid] | 0.101 ± 0.112 | 28.1 ± 26.2 | 0.106 ± 0.07 | 27.2 ± 15.8 | 0.113 ± 0.0904 | 29.1 ± 20.5 | – |
| O=C(O)CCc1cccc(O)c1 [3-(3-hydroxyphenyl)-propanoic acid] | 0.182 ± 0.126 | 58.9 ± 39.1 | 0.283 ± 0.388 | 83.3 ± 79.5 | 0.226 ± 0.177 | 72.5 ± 48.6 | – |
| O=C(O)CCc1ccc(O)cc1 [3-(4-hydroxyphenyl)-propanoic acid] | 0.126 ± 0.115 | 31.4 ± 25 | 0.178 ± 0.12 | 48.6 ± 36.6 | 0.261 ± 0.132 | 81.7 ± 102 | – |
| O=C(O)c1cccc(O)c1 [3-Hydoxybenzoic acid (3OH-BA), 3-hydroxybenzoic acid] | – | – | – | – | – | – | plasma concentration [1]: below detection limits |
| O=C(O)CNC(=O)c1ccc(O)cc1 [4-Hydroxyhippuric acid (4OH-HA), 4-hydroxyhippuric acid] | – | – | – | – | – | – | plasma concentration [1]: below detection limits |
| O=C(O)Cc1ccccc1 [Phenylacetic acid (PAA), phenylacetic acid] | – | – | – | – | – | – | AUC(0-t) ([1]; in vivo, 0 g mixed spices): 1.74 ± 1.24 µM·h; Cmax ([1]; in vivo, 0 g mixed spices): 433 ± 287 nM; AUC(0-t) ([1]; in vivo, 6 g mixed spices): 4.44 ± 2.97 µM·h; Cmax ([1]; in vivo, 6 g mixed spices): 1020 ± 826 nM; AUC(0-t) ([1]; in vivo, 12 g mixed spices): 4.13 ± 2.95 µM·h; Cmax ([1]; in vivo, 12 g mixed spices): 1000 ± 666 nM |
| O=C(O)CCc1ccccc1 [3-Phenylpropanoate acid (PPA), 3-phenylpropanoic acid] | 0.831 ± 0.784 | 279 ± 322 | 2.39 ± 4.37 | 731 ± 1220 | 1.86 ± 3.43 | 554 ± 985 | – |
